This is an account of results in patent publication US20020119917A1, “ANTI-INFLAMMATORY PEPTIDES DERIVED FROM C-REACTIVE PROTEIN” (priority 1996, published 2002).

In series [1] the target is T1, human leukocyte elastase (hLE) (Homo sapiens, UniProt P08246).
T1 construct: Neutrophils (1.4 billion) were isolated from whole blood obtained from a single healthy laboratory donor; from tissue; host or cells: neutrophils from whole blood of a single healthy donor
T1 sequence (P08246 30-247 limits assumed): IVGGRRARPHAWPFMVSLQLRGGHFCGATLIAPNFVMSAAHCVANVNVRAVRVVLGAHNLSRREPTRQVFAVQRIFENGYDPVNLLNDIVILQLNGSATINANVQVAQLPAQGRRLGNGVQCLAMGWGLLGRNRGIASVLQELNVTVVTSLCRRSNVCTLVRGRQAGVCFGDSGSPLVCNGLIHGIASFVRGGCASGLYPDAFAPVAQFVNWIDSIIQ
Briefly: In-vitro inhibition of hLE (cleavage of MeOSuc-AAPV-NA). It counts as biochemical. Here is the method:
(§1) The enzymatic activity was assayed with MeOSuc-AAPV-NA for hLE determination and Suc-AAPF-NA for hCG determination (both in 100 mM Hepes buffer, pH 7.4, containing 0.05% of the […] detergent Brij-35). The activities of the individual enzymatic fractions were 100% free from cross-contamination. […] The fractions containing hLE and hCG were dialyzed each against 0.1% pyridinium acetate, pH 5.3, divided into 20 aliquots, lyophilized, and stored at −20° C. until use.
Peptides were dissolved in 100 mM Hepes buffer pH 7.4 containing 0.1% Brij-35 with 10% DMSO to yield 600 μM solutions, which were used to make further dilutions with the same buffer, and 80 μL aliquots were added in duplicates to 96-well plates. The substrate, 600 or 900 μM MeOSuc-AAPV-NA in the same buffer with 5% DMSO, was added to each well in addition to the blank wells, and the plate was placed in the plate reader equilibrated to 37° C. (Dynateck MR-6000). Lyophilized aliquots of hLE were dissolved in 1600 μL of 100 mM Hepes buffer without DMSO, and 80 μL of the enzyme solution was added to the peptides and substrate to initiate the reaction. […] The final volume was 240 μL containing: 5% DMSO, 1-200 μM of peptide, 200 μM substrate, and 0.75 μg (about 25 picomol) enzyme.
For hLE, V is determined by fitting a linear equation to the first 6 time-points (10 min) of the kinetics data using the least squares method. […] From calculating the error in the slope of the equation, the relative error for Ki was deduced:
Ki={slope*(1+[S]/Km)}^−1 because Ki=[I]*{(1+[S]/Km)*(Vo/Vi−1)}^−1.
The hLE inhibitory capability of CRP-derived peptides was evaluated by inhibiting the enzymatic cleavage of MeOSuc-AAPV-NA as described in Materials and Methods (section v).

Series [2] concerns the target T2, hLE (Homo sapiens, UniProt P08246).
T2 construct: Neutrophils (1.4 billion) were isolated from whole blood obtained from a single healthy laboratory donor; from tissue; host or cells: neutrophils from whole blood of a single healthy donor
T2 sequence (P08246 30-247 limits assumed): T1 sequence (P08246 30-247 limits assumed)
The experiment in a line: Degradation profiles of peptides by RP-HPLC after incubation with hLE. In kind it is in vitro ADME. The settings on record: incubated with hLE in PBS, 37° C., time-scale hours. Here is the method: Several active peptide inhibitors were dissolved in calcium- and magnesium-free phosphate-buffered saline (PBS), 125 μg/250 μL, mixed with 0.25 aliquots of hLE or hCG in 250 μL PBS and incubated at 37° C. Periodically (1,3,8, and 24 hour), 100 μL samples were removed from the reaction vessel. The samples were diluted with 150 μL of 0.1% TFA, frozen with liquid nitrogen, and stored at −20° C. prior to HPLC analysis.
More insight into the mechanism of inhibition is provided by HPLC time-course elution profiles of peptide 1, incubated with hLE in PBS (FIG. 2). […] The other bonds in peptide 1 are cleaved only after several days of incubation with the enzyme.

Series [3] has as its target T3, human leukocyte cathepsin G (hCG) (Homo sapiens, UniProt P08311).
T3 construct: Neutrophils (1.4 billion) were isolated from whole blood obtained from a single healthy laboratory donor; from tissue; host or cells: neutrophils from whole blood of a single healthy donor
T3 sequence (P08311 21-244 limits assumed): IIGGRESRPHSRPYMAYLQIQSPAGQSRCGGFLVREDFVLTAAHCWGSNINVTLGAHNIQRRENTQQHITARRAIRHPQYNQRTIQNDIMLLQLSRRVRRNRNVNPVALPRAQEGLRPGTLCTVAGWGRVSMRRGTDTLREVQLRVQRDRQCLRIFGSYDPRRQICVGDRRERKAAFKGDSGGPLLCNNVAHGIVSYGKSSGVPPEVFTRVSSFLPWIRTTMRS
Briefly: In-vitro inhibition of hCG (conversion of Suc-AAPF-NA). In kind it is biochemical. Here is the method: as §1
Similar conditions to hLE inhibition experiments ere used except the substrate: 80 μL of 1.8 mM Suc-AAPF-NA. The enzyme was issolved in 800 μL buffer, and the reaction was monitored every 6 min for 1 hour. The final volume was 240 μL containing: 5% DMSO, 1-500 μM peptide, 600 μM substrate, and 1.2 μg enzyme (about 40 picomol).
For hCG, V is determined by fitting a quadratic equation to the total kinetic data (60 min), using the least squares method and calculating V at t=0.
The inhibitory capability of several CRP-derived peptides was evaluated by inhibiting the enzymatic conversion of Suc-AAPF-NA (as described in Materials and Methods (vi) above).

Series [4] deals with specific receptors on monocytes. The settings on record: in vitro; cited from earlier work.
The target of series [5] is T4, hLE (Homo sapiens, UniProt P08246).
T4 sequence (P08246 30-267): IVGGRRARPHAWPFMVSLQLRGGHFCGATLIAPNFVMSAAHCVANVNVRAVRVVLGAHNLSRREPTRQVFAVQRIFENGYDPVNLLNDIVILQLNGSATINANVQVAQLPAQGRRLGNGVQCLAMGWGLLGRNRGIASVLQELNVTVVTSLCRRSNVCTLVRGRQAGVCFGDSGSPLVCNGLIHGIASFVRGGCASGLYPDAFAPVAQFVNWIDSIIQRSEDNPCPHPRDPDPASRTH
The settings on record: CRP as a whole protein; cited from earlier work.

Series [6] concerns specific receptors on human neutrophils. The following applies: in vitro; cited from earlier work.
Setting [7] is: substrate MeOSuc-AAPV-NA, 100 mM Hepes pH 7.4, 37° C., read-out: hLE Ki.
Where [8] appears, read: substrate Suc-AAPF-NA, 600 μM, read-out: hCG Ki.

Read-outs that look alike come from different tables or passages of the source. Starred links: 1 amine or outer side, 2 acyl side, 3 side chain; linkers in the order of their positions; H or OH if unused. Non-standard residues stand in square brackets, D forms with d. Residues, ends and D or L forms follow the SMILES beside them. No end group written: not given here. *: point of attachment. Fmoc = O=C(OCC1c2ccccc2-c2ccccc21)*; NH(1-naphthyl) = c1ccc2c(N*)cccc2c1; MeOSuc = COC(=O)CCC(=O)*; Cbz = O=C(OCc1ccccc1)*; CO = O=C([*:1])[*:2]

For `CC[C@H](C)[C@H](NC(=O)[C@@H](Cc1c[nH]cn1)NC(=O)[C@@H](NC(=O)[C@@H]1CCCN1C(=O)[C@H](C)NC(=O)[C@@H](NC(=O)[C@@H](NC(=O)[C@@H](N)C(C)C)[C@@H](C)O)C(C)C)C(C)C)C(=O)O` [Peptide 6, Val89-Thr-Val-Ala-Pro-Val-(D)His-Ile96] (H-VTVAPV[dH]I-OH; N-terminus and C-terminus assumed), in series [1], the Ki (commonly a dissociation constant, usually derived from enzyme kinetics or from competition with a known ligand) came out at 450 ± 45 µM. Further, the “cleavage by hLE (HPLC time-course elution profile)” value in series [2] is listed as “No observable cleavage products”.
In the same order, the values of `CC[C@H](C)[C@H](NC(=O)[C@H](Cc1c[nH]cn1)NC(=O)[C@H](NC(=O)[C@@H]1CCCN1C(=O)[C@H](C)NC(=O)[C@@H](NC(=O)[C@@H](NC(=O)[C@@H](N)C(C)C)[C@@H](C)O)C(C)C)C(C)C)C(=O)O` [Peptide 7, Val89-Thr-Val-Ala-Pro-(D)Val-His-Ile9] (H-VTVAP[dV]HI-OH; N-terminus and C-terminus assumed) are 330 ± 130 µM and “No observable cleavage products”.
The like results for `CC[C@H](C)[C@H](NC(=O)[C@@H](Cc1c[nH]cn1)NC(=O)[C@H](NC(=O)[C@@H]1CCCN1C(=O)[C@H](C)NC(=O)[C@@H](NC(=O)[C@@H](NC(=O)[C@@H](N)C(C)C)[C@@H](C)O)C(C)C)C(C)C)C(=O)O` [Peptide 8, Val89-Thr-Val-Ala-Pro-(D)Val-(D)His-Ile96] (H-VTVAP[dV][dH]I-OH; N-terminus and C-terminus assumed) were, in that order, 490 ± 50 µM and “No observable cleavage products”.
As for `CC[C@H](C)[C@H](NC(=O)[C@H](Cc1c[nH]cn1)NC(=O)[C@@H](NC(=O)[C@@H]1CCCN1C(=O)[C@H](C)NC(=O)[C@@H](NC(=O)[C@@H](NC(=O)[C@@H](NC(=O)[C@H](Cc1ccccc1)NC(=O)CCC(=O)OC)C(C)C)[C@@H](C)O)C(C)C)C(C)C)C(=O)O` [Peptide 16, MeOSuc-Phe-Val89-Thr-Val-Ala-Pro-Val-His-Ile96] (MeOSuc-FVTVAPVHI-OH), the Ki was found to be 100 ± 10 µM in series [1] and 100 ± 200 µM in series [3].
`CC[C@H](C)[C@H](NC(=O)[C@H](Cc1c[nH]cn1)NC(=O)[C@@H](NC(=O)[C@@H]1CCCN1C(=O)[C@H](C)NC(=O)[C@@H](NC(=O)[C@@H](NC(=O)[C@@H](NC(=O)Nc1cccc2ccccc12)C(C)C)[C@@H](C)O)C(C)C)C(C)C)C(=O)O` [Peptide 18, Naphtyl-NH-CO-Val89-Thr-Val-Ala-Pro-Val-His-Ile96] ({NH(1-naphthyl)-CO}-VTVAPVHI-OH): the Ki in series [1] was 240 ± 35 µM; in series [3], 300 ± 40 µM.
In the same order, the values of `CC[C@H](C)[C@H](NC(=O)[C@H](Cc1c[nH]cn1)NC(=O)[C@@H](NC(=O)[C@@H]1CCCN1C(=O)[C@H](C)NC(=O)[C@@H](NC(=O)[C@@H](NC(=O)[C@@H](NC(=O)[C@H](Cc1ccccc1)NC(=O)OCc1ccccc1)C(C)C)[C@@H](C)O)C(C)C)C(C)C)C(=O)O` [Peptide 21, CBz-Phe-Val89-Thr-Val-Ala-Pro-Val-His-Ile96] (Cbz-FVTVAPVHI-OH) are 380 ± 115 µM and 430 ± 60 µM.
In the same order, the values of `CC[C@H](C)[C@H](NC(=O)[C@H](Cc1c[nH]cn1)NC(=O)[C@@H](NC(=O)[C@@H]1CCCN1C(=O)[C@H](C)NC(=O)[C@@H](NC(=O)[C@@H](NC(=O)[C@@H](NC(=O)OCC1c2ccccc2-c2ccccc21)C(C)C)[C@@H](C)O)C(C)C)C(C)C)C(=O)O` [Peptide 23, Fmoc-Val89-Thr-Val-Ala-Pro-Val-His-Ile96] (Fmoc-VTVAPVHI-OH) are 1000 ± 100 µM and 280 ± 30 µM.
“CRP: plasma protein, major acute phase reactant; five identical sub-units of 206 amino acids forming a cyclic pentamer”: the values for the Kd in series [4] and in series [6] were about 0.1 µM and about 0.05 µM, respectively. For the same molecule, the “inhibitory effect on hLE” value in series [5] is listed as “no inhibitory effect”.
“DIGYSFTVGGSEILFEVPEVTVAPVHICT [Peptide 3c]”: the Ki amounted to 4 µM in series [1] and 22 ± 3 µM in series [3].
In the same order, the values of “GSEILFEVPEVTVAPVHI [Peptide 2, Gly79-Ser-Glu-Ile-Leu-Phe-Glu-Val-Pro-Glu-Val-Thr-Val-Ala-Pro-Val-His-Ile96]” are 50 ± 5 µM and 1200 ± 200 µM.
The molecule “H-VTVAPVHI-OH [Peptide 1, Val89-Thr-Val-Ala-Pro-Val-His-Ile96]” returned a Ki in series [1] of 120 ± 15 µM. Moreover, in series [3], the Ki came to 1400 ± 200 µM and the “hCG inhibitory capability (in words)” value is given as “slightly inhibitory”. Moreover, the “cleavage by hLE (HPLC time-course elution profile)” value in series [2] is reported as “cleaved as predicted exclusively at the Val-His bond”.
In the case of SFTVGGSEILFEVPEVTVAPVHI [Peptide 3], the Ki in series [1] came to 27 ± 3 µM; in series [3], 500 ± 100 µM.
In the same order, the values of SFTVGGSEILFEVPEVTVAPVHICT [Peptide 3a] are 20 ± 3 µM and 180 ± 30 µM.
In the same order, the values of “SFTVGGSEILFEVPEVTVAPVHICTSWESA [Peptide 3b]” are 22 ± 4 µM and 200 ± 30 µM.
As to “VTVAPFHIP-NH2 [Peptide 13, Val89-Thr-Val-Ala-Pro-Phe-His-Ile96-Pro-NH2]”, the Ki in series [1] (setting [7]) is 180 ± 30 µM; in series [3] (setting [8]), 900 ± 200 µM.
In the same order, the values of “VTVAPVFI [Peptide 10, Val89-Thr-Val-Ala-Pro-Val-Phe-Ile96]” are 110 ± 25 µM and 1 ± 0.2 µM.
